These are literature values, as cited in paper PMC8778659 (Bioconjugate Chemistry, 2021).

This series deals with LNCaP xenografts. The following applies: 1 h p.i. ref 29.

Turning to `O=C(O)CC[C@H](NC(=O)N[C@@H](CCCCNC(=O)c1ccc(-c2cn(CCOCCOCC[18F])nn2)cc1)C(=O)O)C(=O)O` [[18F]PSMA-MIC01], the specific tumor uptake is on record as 11.7 ± 4.2 %ID/g.
